Laboratory results from patent US4709027A, “Bicyclic spirosulfonimides with psychotropic activity” (American Home Products Corporation, priority 1986, dated 1987).
Read-outs that look alike come from different tables or passages of the source.

How the values were obtained:
[1] = conditioned avoidance (discrete trial) test; type: in vivo, male CD rats; conditions: Rattus norvegicus, po, rats, read-out: AB50 (dose producing 50% block in avoidance responding), discrete trial
Procedure: The antipsychotic activity of the compounds of the invention is assessed via the conditioned avoidance (discrete trial) test. This test has excellent clinical correlation for antipsychotic activity.
Male CD rats (Charles River) maintained at approximately 400-450 gm body weight are used. Rats trained previously are placed in plexiglass experimental chambers equipped with a response lever, house light, and sonalert. A steel grid floor is wired for presentation of electric shock. Each trial consists of a fifteen-second warning tone (conditioned stimulus), continuing for an additional fifteen seconds accompanied by electric shock, (unconditioned stimulus). The rat can terminate a trial at any point by depression of the response lever. […]
The following experimental parameters are recorded by computer; (1) the number of interval responses, (2) the number of avoidance responses, (3) the number of escape responses, and (4) the number of trials in which no response occurred.
Response counts are summed over all subjects at a given dose. […] This number is expressed as a percentage of the total trials. Control performance is arbitrarily assigned a value of 100% for avoidance and the dose calculated to produce a 50% block in avoidance responding (AB50) is obtained from a dose-effect regression line fitted by the method of least squares. […]

[2] = test system: 5-HT-1A serotonin receptor; assay: ex vivo inhibition of 5-HT-1A serotonin receptor binding (3H-8-OH-DPAT, hippocampal membranes); parameters: species or system rats; conditions: at 1 μM of drug concentration
Procedure: Several groups of rats (4-6 rats/group) are injected with test compound or the appropriate vehicle. Thirty minutes later, unless otherwise noted, rats are decapitated and their brains removed. Various brain regions are dissected and rapidly frozen and maintained at -70° C. until used.
Hippocampal tissue is dissected and homogenized on ice in 40 vols of buffer (50 mM Tris HCl, pH=7.7) using a Polytron homogenizer at setting 5 for 3×15 sec bursts. The homogenate is then centrifuged at 20,000 rpm (RC5-B; 50,000 g) and the supernatant discarded. The pellet is resuspended in 40 vols of the same buffer and incubated at 37° C. for 10 minutes to aid in the removal of endogenous serotonin. the homogenate is then centrifuged (as above) and the supernatant discarded. […]
The homogenate (50 μl; 0.4-0.6 mg protein/sample) is incubated with 100 μl (1.5-1.8 nM) ^3 H-8-hydroxy-2-(di-n-propylamino)tetraline in a final volume of 2 ml of buffer for 10 minutes at 37° C. […] The vials are then counted in a Packard 460 CD scintillation counter.
Specific binding is calculated for each of the treatment protocols and is defined as total binding less binding in the presence of excess unlabeled serotonin (1 μM). Specific binding obtained in vehicle-treated rats is compared to that obtained in animals receiving a single or various doses of test compound and expressed as percent of control.

[3] = conditioned avoidance (shelf-jump response) test; type: in vivo, male CD rats; conditions: i.p., rats
Description: A test designed to determine the potential antipsychotic activity of the compounds of the invention is the conditioned avoidance (shelf-jump response) test.
Male CD rats (Charles River) maintained at approximately 400-450 gm body weight are used. […] A moveable wall, controlled by a motor, determines whether the rat has access to the shelf at any time during the experiment. The experimental chamber also contains a house light and sonalert. A steel grid floor in the main chamber is wired for presentation of electric shock. Each trial consists of a fifteen-second warning tone (conditioned stimulus), continuing for an additional fifteen seconds accompanied by electric shock, (unconditioned stimulus). A response (jumping onto the exposed shelf of the upper chamber) occurring during the initial fifteen-second warning tone is considered an avoidance response, while a response occurring during shock delivery is considered an escape response. Trials are presented on a fixed interval schedule of one minute. The session consists of thirty-six trials. Animals are run twice weekly with control sessions always preceding a drug run, and with at least one day intervening. Compounds are administered i.p. or p.o. at appropriate pre-treatment times to a minimum of five rats at each dose level over a range of doses.
The following experimental parameters are recorded by computer: (1) the number of avoidance responses, (2) the number of escape responses, and (3) the number of trials in which no response occurred.
Response counts are summed over all subjects at a given dose. […] This number is expressed as a percentage of the total trials. Control performance is arbitrarily assigned a value of 100% for avoidance and the dose calculated to produce a 50% block in avoidance responding (AB50) is obtained from a dose-effect regression line fitted by the method of least squares. Potential anti-psychotic compounds suppress avoidance responding and increase escape responding.

Compound	ED50 ([1]; peroral administration, range in parentheses)	displacement of specific 3H-8-OH-DPAT binding from hippocampal membranes [2]	Active at (dose), shelf-jump [3]	ED50 ([1]; perorally, unit inferred)
O=C1CC2(CCCC2)CC(=O)N1CCCCN1CCN(c2ncccn2)CC1 [Buspirone, 8-[4-[4-(2-pyrimidinyl)-1-piperazinyl]butyl]-8-azaspiro[4.5]decane-7,9-dione, reference compound]	47.9 mg/kg	–	–	–
CC1CC(=O)N(CCCCN2CCN(c3cncc(Cl)n3)CC2)S(=O)(=O)N1 (stereo not drawn) [Example 1, 2-[4-[4-(6-Chloro-2-pyrazinyl)-1-piperazinyl]butyl]-5,6-dihydro-5-methyl-2H-1,2,6-thiadiazin-3(4H)-one 1,1 dioxide]	–	61%	40 mg/kg	32.5 mg/kg
O=C1N(CCCCN2CCN(c3ncccn3)CC2)S(=O)(=O)NC12CCCCC2 [Example 2, 3-[4-[4-(2-Pyrimidinyl)-1-piperazinyl]butyl]2-thia-1,3-diazaspiro[4,5]decan-4-one 2,2-dioxide]	–	–	40 mg/kg	–
CC1CC(=O)N(CCCCN2CCN(c3ncccn3)CC2)S(=O)(=O)N1 (stereo not drawn) [Example 3, 5,6-Dihydro-5-methyl-2-[4-[4-(2-pyrimidinyl)-1-piperazinyl]butyl]-2H-1,2,6-thiadiazin-3(4H)-one 1,1-dioxide]	–	–	40 mg/kg	–
